Test results as given in paper PMC7393680 (Organic & biomolecular chemistry, 2020).
Like-named read-outs stand apart in the source and are kept apart here. Values belong to the compound of their own block, whether it stands above or below them.

Assays:
[1] = target: 5FW-BPTF bromodomain (His9-tagged, 5-fluorotryptophan-labelled); experiment: NMR titration
5FW-BPTF bromodomain = 5FW-BPTF bromodomain (Homo sapiens, UniProt Q12830); experiment: SPR, 5FW-labeled His9-BPTF on NTA chip, steady-state; assay type: binding
BPTF [2] = conditions: ITC, cited from earlier work
BPTF [3] = conditions: prior lead inhibitor; cited from earlier work

Kd [1]: 720000 nM
Compound: Histone variant H2AZ.1 K4ac,K11ac peptide

Kd (5FW-BPTF bromodomain): 250 ± 20 nM
Compound: CN(C)CCCOc1ccc(-c2cc(NCCCn3cccn3)nc(S(C)(=O)=O)n2)cc1 [compound 2, TP-238]
fold weaker affinity for BPTF over CECR2 (BPTF [2]; BPTF vs CECR2): 10 fold
Kd (BPTF [2]; read-out: Reported BPTF Kd, unlabeled BPTF, thesgc.org): 120 nM

Compound: COC(=O)c1cccc(NC(=O)NC2CCN(c3ccnc(Nc4ccc(F)cc4)n3)C2)c1 (centres unmarked) [AU1]
Kd (BPTF [3]): 2800 nM
